Laboratory results taken from US6420428B1, “Treatment and prevention of hepatic disorders” (The Regents of the University of California, priority 1996, dated 2002).

What was measured:
[1] = system: α-smooth muscle actin (α-SMA) expression in hepatic stellate cells; experiment: Stellate cell activation: α-SMA expression by Western blot of freshly isolated stellate cells, CCl4-treated rats; assay type: in vivo, Sprague-Dawley rats; details: 200 mg/kg i.p., 48 h, metabolite 5 given as ester prodrug
Description: (§2) At least four Sprague-Dawley (Charles River Breeding Labs) male rats (50 to 60 g) were assigned to each of four testing groups (designated as “CCl4”, “pentoxifylline”, “metabolite 5”, and “control”). Each rat received a single intraperitoneal injection of CCl4 in mineral oil (1:3; v/v) at a dose of 2 mL/kg body weight (CCl4, pentoxifylline, and metabolite 5 groups), or mineral oil only (control group). In addition, animals received intraperitoneal injections (100 μL) of saline (control and CCl4 groups), 200 mg/kg pentoxifylline (pentoxifylline group), or 200 mg/kg of the ester prodrug of pentoxifylline metabolite 5 (metabolite 5 group) at the following times with respect to mineral oil or CCl4 administration: −4 h, +8 h, +20 h, +32 h, and +44 h.
Hepatic stellate cells were prepared from rats by in situ perfusion of the liver and single-step density Nycodenz® gradient (Accurate Chemical & Scientific Corp.). […] The cells were mixed with 9.5 mL Hank's buffer containing 3 g/L BSA and 8 mL of 28.7% (w/v) Nycodenz® in sodium-free Hank's buffer. The gradient was generated by placing 6 mL of the Hank's/BSA solution on top of the liver cell mixture in a 50 mL centrifugation tube. […]

[2] = system: malondialdehyde-protein adducts; experiment: Hepatic lipid peroxidation (malondialdehyde-protein adducts, immunohistochemistry) in CCl4-treated rats; assay type: in vivo, Sprague-Dawley rats; details: 48 h
Description: (§1) Forty-eight hours after the CCl4 or mineral oil injection (and 4 hours after the [^3H]thymidine injection), the rats were sacrificed. Thereafter, liver tissues were promptly removed, and a piece was fixed in 10% formaldehyde and embedded in paraffin for immunohistochemical staining.
Liver tissue was immunostained with antisera, specific for malondialdehyde-lysine adducts, raised against malondialdehyde-lysine adducts as described by Houglum et al., J Clin Invest 96:2269-76 (1995). Briefly, guinea pig LDL was isolated and modified with MDA, and the homologous modified LDL was used to immunize guinea pigs.
A phase-contrast microscope was utilized for hematoxylin/eosin staining and immunohistochemistry with alkaline phosphatase secondary antibodies (Vector Laboratories). Cytochromes utilized were alkaline phosphatase with fast green as counterstain (Sigma Chemical Co.). Negative control samples were processed in parallel under the same conditions, but with omission of the primary antibody.
In order to ascertain whether or not the prevention of activation observed with pentoxifylline resulted from interfering with the hepatocellular injury induced by CCl4, the degree of hepatocellular injury and lipid peroxidation were determined in those animals. […] As set forth above, protein adducts with malondialdehyde were detected using specific antibodies against malondialdehyde-lysine epitopes.

[3] = system: NFkB; experiment: Mobility shift analysis of stellate cell nuclear extracts with NFkB oligonucleotide; assay type: in vivo, Sprague-Dawley rats; details: CCl4-treated rats, gel shift
Description: Gel retardation analysis of protein-DNA complexes were performed with an oligonucleotide of the putative DNA binding site.
For these analyses, equal amounts of nuclear protein were incubated with 1 ng of ^32P-labeled-NFkB (FIG. 3A) or ^32P-labeled-α-SMA-E box (FIG. 3B) oligonucleotides. The DNA-protein complexes were resolved by electrophoresis on a 6% nondenaturing polyacrylamide gel, the position of the bound DNA being indicated by arrows in FIGS. 3A-B. As described further below, some samples were incubated with specific antibodies or unlabeled oligonucleotide.
More specifically, FIG. 3A depicts DNA-protein complexes resolved by gel electrophoresis for representative samples of control (lane 2), CCl4 (lane 3), CCl4/pentoxifylline (lane 4); CCl4/metabolite 5 (lane 5); and CCl4+NFkB oligonucleotide (lane 6). On lane 1, the ^32P-labeled-NFkB probe was processed without nuclear extracts. […] The complex of ^32P-labeled NFkB oligonucleotides and nuclear extracts from activated stellate cells was competed by a NFkB cognate oligonucleotide (lane 6).

[4] = system: α-SMA-E box; experiment: Mobility shift analysis of stellate cell nuclear extracts with α-SMA-E box oligonucleotide; assay type: in vivo, Sprague-Dawley rats; details: CCl4-treated rats, gel shift
Description: as §2
Briefly, cells were homogenized in 1 mL of 5% citric acid, 0.5% NP-40, 10 mM sodium fluoride and 10 mM sodium pyrophosphate with a glass Dounce homogenizer with a loose fitting pestle. The homogenized cells were placed above a cushion consisting of 30% sucrose and 1% citric acid. The nuclei were precipitated by a 4,000 g centrifugation at 4° C. for 30 min. and frozen at −70° C.
Gel retardation analysis of protein-DNA complexes were performed with an oligonucleotide of the putative DNA binding site. […]

[5] = system: 3T3 NIH fibroblasts; experiment: Fibroblast proliferation in culture; assay type: cell-based; details: for effect on fibroblast growth induced by cytokines PDGF, EGF and FGF: data not shown
Description: The biological activities of pentoxifylline and metabolite 5 were further studied by measuring their effects on the stimulation of fibroblast proliferation. For this study, 3T3 NIH fibroblasts were cultured in the presence or absence of pentoxifylline or metabolite 5.

[6] = system: cAMP phosphodiesterase activity in hepatic stellate cells; experiment: CREB phosphorylation at Ser 133 in stellate cell nuclear extracts (Western blot) as measure of cAMP phosphodiesterase inhibition in vivo; design: species or system Sprague-Dawley rats; details: for expression of CREB-PSer133 in stellate cell nuclear extracts: CCl4-treated rats, Western blot
Description: Stellate cells were identified by their typical autofluorescence at 328 nm excitation wavelength, staining of lipid droplets by oil red, and immunohistochemistry with a monoclonal antibody against desmin. [Bedossa et al., Hepatology 19(5):1262-71 (1994)]. Detection of α-SMA, malondialdehyde-protein adducts, and CREB-PSer 133 in stellate cells extracts was performed by Western blot [Buck et al., EMBO J. 13:851-60 (1994)], and using antibodies directed against α-SMA (Vector Laboratories), malondialdehyde-lysine epitopes as described below [Trautwein et al., J. Clin. Invest. 93:2554-61 (1990)], or CREB-PSer 133 (Upstate Biotechnology).
Next, pentoxifylline and metabolite 5 were evaluated to determine whether they inhibit cAMP phosphodiesterase activity in hepatic stellate cells in vivo leading to an increase in protein kinase A-mediate phosphorylation. Because this signal transduction pathway triggers site-specific phosphorylation of the nuclear transcription factor CREB (cAMP responsive element binding protein) on Serine 133 [Yamamoto et al., Nature 334:494-98 (1988)], the induction of CREB phosphorylation at Ser 133 was analyzed in nuclear extracts from freshly isolated stellate cells using an antibody against the activated, phosphorylated form of CREB [Ginty et al., Science 260:238-42 (1993)].
FIG. 4B is a Western blot indicating the results of phosphorylation of CREB at Serine 133 in stellate cell nuclear extracts with control (lane 1), CCl4 (lane 2), CCl4/pentoxifylline (lane 3), and CCl4/metabolite 5 (lane 4) animals. […] Molecular markers (kilodaltons) are shown on the right margin of FIG. 4B. In addition to recognizing CREB, anti-CREB-PSer133 detected two other proteins. These are most likely members of the CREB-ATF family, ATF-1 and CREM, that have phosphoacceptor sequences similar to that of CREB-PSer133 [Ginty et al., Science 260:238-42 (1993)]. […] Neither CREB PSer133 nor phosphorylated members of the CREB-ATF family were detected in stellate cell nuclear extracts from CCl4-treated animals (lane 2).

[7] = after pentoxifylline; cited from earlier work
[8] = system: hepatic stellate cells; experiment: Stellate cell proliferation ([3H]thymidine incorporation into stellate cell DNA) in CCl4-treated rats; assay type: in vivo, Sprague-Dawley rats; details: 200 mg/kg i.p. at -4, +8, +20, +32, +44 h, 48 h, metabolite 5 given as ester prodrug
Description: as §1
Hepatic stellate cells were prepared from rats by in situ perfusion of the liver and single-step density Nycodenz® gradient (Accurate Chemical & Scientific Corp.). [See Bedossa et al., Hepatology 19(5):1262-71 (1994); Brenner et al., Mol. Biol. Med. 7:105-15 (1990); Schäfer et al., Hepatology 7(4):680-87 (1987)]. The cells were mixed with 9.5 mL Hank's buffer containing 3 g/L BSA and 8 mL of 28.7% (w/v) Nycodenz® in sodium-free Hank's buffer. […]
Nuclei were prepared by a modification of the procedure described previously, e.g., by Buck et al., EMBO J. 13:851-60 (1994). […] DNA was isolated, extracted and counted for [^3H]thymidine incorporation.
Stellate cell proliferation was assessed by the incorporation of [^3H]thymidine. Stellate cell activation was evaluated by the expression of α-smooth muscle actin (α-SMA). […]
The specific activity of stellate cell DNA, an index of S-phase labeling, was determined from at least four rats in each experimental group after 4 hours of labeling with [^3H]thymidine at 1 PM. […]

[9] = rat, in vivo
Description: At least four Sprague-Dawley (Charles River Breeding Labs) male rats (50 to 60 g) were assigned to each of four testing groups (designated as “CCl4”, “pentoxifylline”, “metabolite 5”, and “control”). Each rat received a single intraperitoneal injection of CCl4 in mineral oil (1:3; v/v) at a dose of 2 mL/kg body weight (CCl4, pentoxifylline, and metabolite 5 groups), or mineral oil only (control group). In addition, animals received intraperitoneal injections (100 μL) of saline (control and CCl4 groups), 200 mg/kg pentoxifylline (pentoxifylline group), or 200 mg/kg of the ester prodrug of pentoxifylline metabolite 5 (metabolite 5 group) at the following times with respect to mineral oil or CCl4 administration: −4 h, +8 h, +20 h, +32 h, and +44 h. The last injection (at +44h) included 30 μCi of 6-[^3H]thymidine (DuPont).

[10] = system: cyclic nucleotide phosphodiesterases; details: cited from earlier work
[11] = system: dermal fibroblasts; details: cited from earlier work
[12] = phosphorus-induced hepatocellular necrosis; cited from earlier work

SMILES	effect on stellate cell activation (α-SMA expression, Western blot) [1]	hepatic lipid peroxidation (malondialdehyde-protein adducts) versus CCl4 alone [2]	effect on NFkB nuclear binding activity of stellate cells [3]	effect on complex between α-SMA-E box and stellate cell nuclear extracts [4]	effect on fibroblast growth in logarithmic phase [5]	effect on fibroblast growth induced by cytokines PDGF, EGF and FGF [5]	expression of CREB-PSer133 in stellate cell nuclear extracts [6]	phosphodiesterase inhibitory activity ([6]; rat, in vivo)	plasma concentration relative to pentoxifylline [7]	effect on stellate cell proliferation (stellate cell DNA [3H]thymidine specific activity) [8]	toxicity of the dose to the animals [9]	phosphodiesterase inhibition [10]	collagen gene expression [11]	hepatic fibrosis [12]
Cn1cnc2c1c(=O)n(CCCC(=O)O)c(=O)n2C [metabolite 5, 1-(3-carboxypropyl)-3,7-dimethylxanthine]	prevented the activation of stellate cells induced by CCl4	did not affect	prevented NFkB nuclear activity induced by CCl4	prevented the formation of a complex	block fibroblast growth in logarithmic phase	blocked fibroblast growth	not detected	lacks phosphodiesterase inhibitory activity	five times greater	–	–	–	–	–
CC(=O)CCCCn1c(=O)c2c(ncn2C)n(C)c1=O [pentoxifylline, 1-(5-oxohexyl)-3,7-dimethylxanthine]	prevented the activation of stellate cells induced by CCl4	comparable	prevented NFkB nuclear activity induced by CCl4	prevented the formation of a complex	block fibroblast growth in logarithmic phase	blocked fibroblast growth	markedly increased	–	–	abolished the proliferation of stellate cells	not toxic	non-specific inhibitor of cyclic nucleotide phosphodiesterases	inhibits collagen gene expression	prevented hepatic fibrosis
